Type in all cases: cell-based
Test [1] relates to Bacteria: Escherichia coil, Pseudomonas aeruginosa, Staphylococcus aureus, Pseudomonas putida, Enterobacter gergoviae. Put plainly: Microbiological load test, preservation of a dishwashing liquid: bacteria. To be noted: B = bacteria, 1 week after pathogen addition, biocide added [wt %]: A DBDCB 0.05, B salicylic acid 0.02, C DBDCB 0.02 and salicylic acid 0.016. An excerpt: (§1) The preserving effect of an inventive composition comprising DBDCB and Salix alba extract in a dishwashing liquid was investigated using a microbiological load test. The microbiological load test examines the susceptibility of water-based products to microbial attack and the effect of preservatives. To this end, the preservatives are incorporated in defined concentrations into the water-based systems. […] With knowledge of the microorganism populations prevalent in detergents of the type described here, the experiment employed a mixture of the following microorganism species for testing: Bacteria: Escherichia coil, Pseudomonas aeruginosa, Staphylococcus aureus, Pseudomonas putida, Enterobacter gergoviae […] The activity is deemed poor when, compared to the unpreserved sample, no reduction or only a minor reduction of the microbe level is observed (residual level of at least 10^5 bacteria/10^4 mold cells/yeast cells per g) (score of 0=poor). The following compositions were used in the experiments depicted in table 10: • A: DBDCB • B: […]

The test system of test [2] is Molds: Acremonium strictum, Aspergillus niger and Geotrichum candidum. The experiment in a line: Microbiological load test, preservation of a dishwashing liquid: molds. To be noted: M = molds, 1 week after pathogen addition, biocide added [wt %]: A DBDCB 0.05, B salicylic acid 0.02, C DBDCB 0.02 and salicylic acid 0.016.
Description: as §1, with “Molds: Acremonium strictum, Aspergillus niger and Geotrichum candidum.” for “Bacteria: Escherichia coil, Pseudomonas aeruginosa, Staphylococcus aureus, Pseudomonas putida, Enterobacter gergoviae”

The next test concerns Staphylococcus aureus. The experiment in a line: Minimum inhibitory concentration and synergistic index (Kull). As to conditions: Table 1. An excerpt: (§2) [formula] • where: • Qa=the amount of component A in the active substance mixture which achieves the desired effect, i.e. no microbial growth, • QA=the amount of component A which, when used on its own, suppresses the growth of the microorganisms, • Qb=the amount of component B in the active substance mixture which achieves the desired effect, i.e. no microbial growth, • and • QB=the amount of component B which, when used on its own, suppresses the growth of the microorganisms.
(§3) A synergistic index obtained according to the above formula of SI<1 indicates a synergistic effect for the active substance mixture.
(§4) Using various test pathogens, the minimum inhibitory concentration was determined and, on the basis thereof with the aid of the formula by F. C. Kull et al., the synergistic effects of the listed compositions according to the invention were calculated.

The test system of another test is Pseudomonas aeruginosa. The test is described as above. As to conditions: for QA: amount of DBDCB used on its own that suppresses growth.
Description: as §2, §3, §4

The test system of the next test is Alternaria alternata. Described as above. To be noted: for QA: amount of DBDCB used on its own that suppresses growth.
Description: as §2, §3, §4

Another test relates to Aspergillus brasiliensis. The description is as above. To be noted: Table 9.
Description: as §2, §3, §4

In the next test the test system is Bacillus subtilis. The description is as above. As to conditions: Table 8.
Description: as §2, §3, §4

A further test concerns Geotrichum candidum. Described as above. As to conditions: Table 3.
Description: as §2, §3, §4

In test [3] the test system is Yeasts: Candida albicans and Rhodotorula rubra. The experiment in a line: Microbiological load test, preservation of a dishwashing liquid: yeasts. As to conditions: Y = yeasts, 1 week after pathogen addition, biocide added [wt %]: A DBDCB 0.05, B salicylic acid 0.02, C DBDCB 0.02 and salicylic acid 0.016.
Description: as §1, with “Yeasts: Candida albicans and Rhodotorula rubra.” for “Bacteria: Escherichia coil, Pseudomonas aeruginosa, Staphylococcus aureus, Pseudomonas putida, Enterobacter gergoviae”

Setting [4] is: amount of DBDCB used on its own that suppresses growth.
[5] abbreviates: amount of benzoic acid used on its own that suppresses growth.
The mark [6] stands for this setting: amount of citric acid used on its own that suppresses growth.

Molecules are shown by their SMILES.

For `N#CCCC(Br)(C#N)CBr` (stereo not drawn) [DBDCB, 1,2-dibromo-2,4-dicyanobutane], the “Activity of the biocides in a dishwashing liquid, bacteria, Week 1” value in [1] (week 1) is 1 (1 = fair activity). The “Activity of the biocides in a dishwashing liquid, bacteria, Week 2” value in test [1] (week 2) is on record as 0 (0 = poor activity). The “Activity of the biocides in a dishwashing liquid, bacteria, Week 3” value in [1] (week 3) was 0 (0 = poor activity). Moreover, the “Activity of the biocides in a dishwashing liquid, bacteria, Week 4” value in test [1] (week 4) was 0 (0 = poor activity). In addition, the “Activity of the biocides in a dishwashing liquid, bacteria, Week 5” value in test [1] (week 5) was 0 (0 = poor activity). Moreover, in test [1] (week 6), the “Activity of the biocides in a dishwashing liquid, bacteria, Week 6” value is recorded as 0 (0 = poor activity). The “Activity of the biocides in a dishwashing liquid, molds, Week 1” value in test [2] (week 1) was 3 (3 = very good activity). In test [2] (week 2), the “Activity of the biocides in a dishwashing liquid, molds, Week 2” value was 3 (3 = very good activity). In addition, the “Activity of the biocides in a dishwashing liquid, molds, Week 3” value in [2] (week 3) is 0 (0 = poor activity). Moreover, the “Activity of the biocides in a dishwashing liquid, molds, Week 4” value in test [2] (week 4) was 0 (0 = poor activity). The “Activity of the biocides in a dishwashing liquid, molds, Week 5” value in [2] (week 5) is on record as 0 (0 = poor activity). The “Activity of the biocides in a dishwashing liquid, molds, Week 6” value in test [2] (week 6) is recorded as 0 (0 = poor activity). Further, the QA came out at 50 ppm in the test with Staphylococcus aureus (setting [4]); 500 ppm in the test with Pseudomonas aeruginosa (Table 4); 250 ppm in the test on Pseudomonas aeruginosa (Table 6); 25 ppm with Alternaria alternata (Table 2); 25 ppm in the test with Alternaria alternata (Table 5); 25 ppm with Alternaria alternata (Table 7). Also, the QA with Aspergillus brasiliensis (setting [4]) is 250 ppm; in the test with Bacillus subtilis (setting [4]), 25 ppm; in the test on Geotrichum candidum (setting [4]), 100 ppm. Moreover, the “Activity of the biocides in a dishwashing liquid, yeasts, Week 1” value in [3] (week 1) is given as 3 (3 = very good activity). For the same compound, the “Activity of the biocides in a dishwashing liquid, yeasts, Week 2” value in test [3] (week 2) is reported as 3 (3 = very good activity). Also, the “Activity of the biocides in a dishwashing liquid, yeasts, Week 3” value in test [3] (week 3) was 0 (0 = poor activity). Further, the “Activity of the biocides in a dishwashing liquid, yeasts, Week 4” value in [3] (week 4) is listed as 0 (0 = poor activity). The “Activity of the biocides in a dishwashing liquid, yeasts, Week 5” value in test [3] (week 5) was 0 (0 = poor activity). Besides, in [3] (week 6), the “Activity of the biocides in a dishwashing liquid, yeasts, Week 6” value is reported as 0 (0 = poor activity).
Turning to `O=C(O)c1ccccc1` [benzoic acid], the QB in the test on Aspergillus brasiliensis (setting [5]) was found to be 1000 ppm; in the test with Bacillus subtilis (setting [5]) it was 3000 ppm.
For `O=C(O)CC(O)(CC(=O)O)C(=O)O` [citric acid], the QB in the test on Staphylococcus aureus (setting [6]) worked out at 3001 ppm; in the test with Alternaria alternata (amount of citric acid used on its own that suppresses growth, Table 2), 3001 ppm; in the test on Geotrichum candidum (setting [6]) it was 3001 ppm.
As to `CC(O)C(=O)O` (stereo not drawn) [lactic acid], the QB came out at 3001 ppm with Pseudomonas aeruginosa (amount of lactic acid used on its own that suppresses growth, Table 4) and 3001 ppm with Alternaria alternata (amount of lactic acid used on its own that suppresses growth, Table 5).
`O=C(O)c1ccccc1O` [salicylic acid]: the QB in the test on Pseudomonas aeruginosa (amount of salicylic acid used on its own that suppresses growth, Table 6) is 3001 ppm; in the test on Alternaria alternata (amount of salicylic acid used on its own that suppresses growth, Table 7), 500 ppm.

The record behind these values is patent publication US20190008147A1, “COMPOSITION CONTAINING 1,2-DIBROMO-2,4-DICYANOBUTANE (DBDCB) AND AT LEAST ONE ORGANIC ACID AND/OR THE DERIVATIVES THEREOF” (priority 2015, published 2019).
